Assay [1] has as its target Epidermal growth factor receptor (Homo sapiens, UniProt P00533). The experiment in a line: Inhibition of wild type EGFR (unknown origin) expressed in Sf9 cells pre-incubated for 30 mins before substrate and ATP addition by homogeneous time-resolved FRET assay.
Assay [2] deals with Epidermal growth factor receptor (Homo sapiens, UniProt P00533, L858R).
Assay [3] has as its target Epidermal growth factor receptor (Homo sapiens, UniProt P00533, L858R/T790M).

SMILES strings stand for the structures. Where only a bound is given, the exact number is not on record here.

Chain of Epidermal growth factor receptor (Homo sapiens, UniProt P00533, L858R/T790M) (P00533 25-1210 T790M/L858R limits assumed): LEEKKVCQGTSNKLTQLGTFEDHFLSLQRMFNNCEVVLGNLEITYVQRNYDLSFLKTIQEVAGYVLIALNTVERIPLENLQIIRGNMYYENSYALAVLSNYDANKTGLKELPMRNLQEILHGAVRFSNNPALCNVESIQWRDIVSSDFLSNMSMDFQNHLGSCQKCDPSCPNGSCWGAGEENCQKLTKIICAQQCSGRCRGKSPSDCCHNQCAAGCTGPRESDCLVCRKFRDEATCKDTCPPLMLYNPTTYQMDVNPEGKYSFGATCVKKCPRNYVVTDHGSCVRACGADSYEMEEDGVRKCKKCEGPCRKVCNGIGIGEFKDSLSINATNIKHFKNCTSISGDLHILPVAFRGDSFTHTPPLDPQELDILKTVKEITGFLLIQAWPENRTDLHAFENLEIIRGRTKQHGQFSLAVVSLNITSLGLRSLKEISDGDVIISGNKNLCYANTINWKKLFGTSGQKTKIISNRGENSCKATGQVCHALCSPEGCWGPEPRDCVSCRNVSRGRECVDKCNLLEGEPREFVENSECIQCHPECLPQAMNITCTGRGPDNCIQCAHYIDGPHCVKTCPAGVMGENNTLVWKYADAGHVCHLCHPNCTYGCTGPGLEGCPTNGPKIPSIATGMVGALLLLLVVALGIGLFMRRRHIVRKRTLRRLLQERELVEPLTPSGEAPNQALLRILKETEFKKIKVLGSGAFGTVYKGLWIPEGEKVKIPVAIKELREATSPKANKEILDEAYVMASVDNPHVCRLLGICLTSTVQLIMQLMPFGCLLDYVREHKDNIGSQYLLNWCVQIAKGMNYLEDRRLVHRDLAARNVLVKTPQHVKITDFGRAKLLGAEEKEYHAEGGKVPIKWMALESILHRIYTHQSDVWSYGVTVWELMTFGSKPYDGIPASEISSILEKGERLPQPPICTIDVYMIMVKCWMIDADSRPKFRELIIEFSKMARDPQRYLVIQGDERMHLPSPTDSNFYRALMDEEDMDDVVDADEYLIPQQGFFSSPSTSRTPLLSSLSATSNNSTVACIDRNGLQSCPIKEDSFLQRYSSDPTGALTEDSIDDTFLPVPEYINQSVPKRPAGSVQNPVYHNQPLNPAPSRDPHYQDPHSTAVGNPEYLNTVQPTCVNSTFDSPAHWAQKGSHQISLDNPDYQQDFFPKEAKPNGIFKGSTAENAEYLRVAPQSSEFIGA
Chain of Epidermal growth factor receptor (Homo sapiens, UniProt P00533, L858R) (P00533 25-1210 L858R limits assumed): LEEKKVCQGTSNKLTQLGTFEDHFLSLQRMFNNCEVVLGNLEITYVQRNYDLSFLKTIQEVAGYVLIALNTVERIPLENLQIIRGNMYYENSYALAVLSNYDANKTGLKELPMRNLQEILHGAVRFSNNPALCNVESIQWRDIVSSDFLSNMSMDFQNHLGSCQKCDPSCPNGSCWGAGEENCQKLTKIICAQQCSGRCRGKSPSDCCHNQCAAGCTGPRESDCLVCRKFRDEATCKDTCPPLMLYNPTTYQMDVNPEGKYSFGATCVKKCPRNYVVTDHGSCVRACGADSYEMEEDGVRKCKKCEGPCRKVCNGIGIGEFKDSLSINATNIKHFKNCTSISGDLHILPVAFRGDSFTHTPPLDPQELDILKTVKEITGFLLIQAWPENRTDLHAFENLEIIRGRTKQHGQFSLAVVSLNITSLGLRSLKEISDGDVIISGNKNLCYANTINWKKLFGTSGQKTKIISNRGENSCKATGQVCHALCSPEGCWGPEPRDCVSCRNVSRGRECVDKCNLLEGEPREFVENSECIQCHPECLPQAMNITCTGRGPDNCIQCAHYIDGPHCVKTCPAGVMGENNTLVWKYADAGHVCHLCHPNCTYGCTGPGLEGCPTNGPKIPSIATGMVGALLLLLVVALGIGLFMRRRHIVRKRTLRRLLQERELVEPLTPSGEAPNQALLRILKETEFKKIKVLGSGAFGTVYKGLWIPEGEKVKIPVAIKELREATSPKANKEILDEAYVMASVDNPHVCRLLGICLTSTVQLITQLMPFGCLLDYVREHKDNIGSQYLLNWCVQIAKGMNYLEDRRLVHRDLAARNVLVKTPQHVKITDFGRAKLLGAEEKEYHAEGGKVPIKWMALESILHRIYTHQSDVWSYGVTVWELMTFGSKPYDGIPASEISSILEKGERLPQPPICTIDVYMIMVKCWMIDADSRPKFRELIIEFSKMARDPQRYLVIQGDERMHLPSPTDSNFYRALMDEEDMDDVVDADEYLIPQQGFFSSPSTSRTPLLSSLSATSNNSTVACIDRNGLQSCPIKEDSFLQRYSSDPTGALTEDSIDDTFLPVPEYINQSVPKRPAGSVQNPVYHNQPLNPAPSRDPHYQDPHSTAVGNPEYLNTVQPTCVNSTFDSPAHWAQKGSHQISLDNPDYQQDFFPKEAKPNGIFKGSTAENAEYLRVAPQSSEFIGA
Chain of Epidermal growth factor receptor (Homo sapiens, UniProt P00533) (P00533 whole entry): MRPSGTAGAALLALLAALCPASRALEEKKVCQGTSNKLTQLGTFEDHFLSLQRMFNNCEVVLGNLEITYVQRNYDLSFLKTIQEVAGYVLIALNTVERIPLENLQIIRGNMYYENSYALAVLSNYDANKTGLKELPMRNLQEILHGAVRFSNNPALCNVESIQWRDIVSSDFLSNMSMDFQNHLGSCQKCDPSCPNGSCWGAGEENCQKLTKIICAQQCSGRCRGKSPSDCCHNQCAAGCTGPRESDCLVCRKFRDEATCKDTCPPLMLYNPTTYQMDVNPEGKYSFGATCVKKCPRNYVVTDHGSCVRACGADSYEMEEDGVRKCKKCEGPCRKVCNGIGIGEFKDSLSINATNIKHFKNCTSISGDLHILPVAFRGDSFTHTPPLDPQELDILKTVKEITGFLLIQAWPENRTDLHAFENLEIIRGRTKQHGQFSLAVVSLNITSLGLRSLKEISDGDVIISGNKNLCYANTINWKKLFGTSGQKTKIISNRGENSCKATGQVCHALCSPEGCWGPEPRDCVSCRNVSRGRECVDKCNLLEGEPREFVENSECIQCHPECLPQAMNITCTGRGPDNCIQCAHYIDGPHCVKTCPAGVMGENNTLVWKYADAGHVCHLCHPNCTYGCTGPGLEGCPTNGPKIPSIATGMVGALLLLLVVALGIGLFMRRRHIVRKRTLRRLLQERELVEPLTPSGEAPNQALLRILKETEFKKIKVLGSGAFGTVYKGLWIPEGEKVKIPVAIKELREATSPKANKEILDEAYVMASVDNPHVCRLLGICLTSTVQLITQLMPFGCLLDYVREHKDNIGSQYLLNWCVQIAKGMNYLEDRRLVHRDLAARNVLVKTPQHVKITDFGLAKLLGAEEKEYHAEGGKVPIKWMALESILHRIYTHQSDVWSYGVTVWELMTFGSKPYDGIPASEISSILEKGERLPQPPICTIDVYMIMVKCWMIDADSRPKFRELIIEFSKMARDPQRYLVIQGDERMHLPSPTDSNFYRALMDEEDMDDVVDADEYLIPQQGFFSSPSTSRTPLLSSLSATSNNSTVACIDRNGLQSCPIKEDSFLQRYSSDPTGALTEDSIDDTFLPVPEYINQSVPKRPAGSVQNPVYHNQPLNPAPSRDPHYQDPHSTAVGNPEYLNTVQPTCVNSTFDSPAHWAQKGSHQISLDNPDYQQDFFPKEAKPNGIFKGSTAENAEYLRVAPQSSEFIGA

Broadly, the IC50 is the concentration at which inhibition is half-maximal. As for `C=CC(=O)Nc1ccccc1-c1nc(Nc2cc[nH]n2)c2ccccc2n1`, the results for the IC50 in assay [1], in assay [2] and in assay [3] were over 10 µM, 2700 nM and 1100 nM, respectively.

For the compound `CCC(=O)Nc1cccc(Oc2nc(Nc3cc[nH]n3)cc(N3CCN(C)CC3)n2)c1`, the values for the IC50 in assay [1], in assay [2] and in assay [3] were over 10 µM, over 10000 nM and over 10000 nM, respectively.

Take `C=CC(=O)Nc1cccc(-c2nc(Nc3cc[nH]n3)c3ccccc3n2)c1`: the IC50 in assay [1] was determined as 1.1 µM; in assay [2], 500 nM; in assay [3], 100 nM.

`C=CC(=O)Nc1cccc(Oc2nc(Nc3cc[nH]n3)cc(N3CCN(C)CC3)n2)c1`: the half-inhibitory concentration (IC50) in assay [1] was over 10 µM; in assay [2] it was 2000 nM; in assay [3] it was 1900 nM.

With `CCC(=O)Nc1ccc(-c2nc(Nc3cc[nH]n3)c3ccccc3n2)cc1`, the IC50 in assay [1] was over 10 µM; in assay [2], over 10000 nM; in assay [3] it was over 10000 nM.

As for `C=CC(=O)Nc1cccc(Oc2nccc(Nc3cc(C)[nH]n3)n2)c1`, the values for the IC50 in assay [1], in assay [2] and in assay [3] were over 10 µM, 1800 nM and 900 nM, respectively.

Regarding `C=CC(=O)Nc1ccc(-c2nc(Nc3cc[nH]n3)c3ccccc3n2)cc1`, the IC50 is over 10 µM in assay [1], over 10000 nM in assay [2] and over 10000 nM in assay [3].

On to `CCC(=O)Nc1cccc(Oc2nccc(Nc3cc(C)[nH]n3)n2)c1`, for which the half-inhibitory concentration (IC50) was over 10 µM in assay [1], over 10000 nM in assay [2] and over 10000 nM in assay [3].

Turning to `Cc1cc(Nc2cc(N3CCN(C)CC3)nc(Oc3ccc(N)cc3)n2)n[nH]1`, the figures for the IC50 in assay [1], in assay [2] and in assay [3] were over 10 µM, 2100 nM and 1400 nM, respectively.

As for `C=CC(=O)Nc1cccc(-c2nccc(Nc3cc(C)[nH]n3)n2)c1`, the figures for the IC50 in assay [1], in assay [2] and in assay [3] were over 10 µM, 2800 nM and 2500 nM, respectively.

On to `CCC(=O)Nc1ccccc1Oc1nc(Nc2cc(C)[nH]n2)cc(N2CCN(C)CC2)n1`, for which the IC50 in assay [1] is over 10 µM; in assay [2], over 10000 nM; in assay [3], over 10000 nM.

Consider `CCC(=O)Nc1ccc(Oc2nc(Nc3cc(C)[nH]n3)cc(N3CCN(C)CC3)n2)cc1`, for which the IC50 in assay [1] was over 10 µM; in assay [2], 1900 nM; in assay [3] it was 700 nM.

In the case of `C=CC(=O)Nc1ccc(Oc2nc(Nc3cc(C)[nH]n3)cc(N3CCN(C)CC3)n2)cc1`, the IC50 in assay [1] came out at 3.1 µM; in assay [2], 1800 nM; in assay [3], 2400 nM.

For the compound `CCC(=O)Nc1ccccc1-c1nc(Nc2cc[nH]n2)c2ccccc2n1`, the IC50 in assay [1] is over 10 µM; in assay [2], over 10000 nM; in assay [3], over 10000 nM.

As for `Cc1cc(Nc2cc(N3CCN(C)CC3)nc(Oc3ccc([N+](=O)[O-])cc3)n2)n[nH]1`, the IC50 in assay [1] is over 10 µM; in assay [2], 1800 nM; in assay [3] it was 900 nM.

For the compound `CCC(=O)Nc1cc(Nc2cc[nH]n2)nc(-c2ccccc2)n1`, the IC50 in assay [1] is over 10 µM; in assay [2], 3400 nM; in assay [3] it was over 10000 nM.

`CCC(=O)Nc1cccc(-c2nc(Nc3cc[nH]n3)c3ccccc3n2)c1`: the IC50 in assay [1] worked out at 3.7 µM; in assay [2], 1900 nM; in assay [3] it was 400 nM.

Take `Cc1cc(Nc2cc(N3CCN(C)CC3)nc(Oc3ccc(NC(=O)/C=C/C(F)(F)F)cc3)n2)n[nH]1`: the IC50 in assay [1] was found to be 2 µM; in assay [2] it was 2100 nM; in assay [3], 1500 nM.

On to `C=CC(=O)Nc1ccccc1Oc1nc(Nc2cc(C)[nH]n2)cc(N2CCN(C)CC2)n1`, for which the IC50 in assay [1] worked out at 0.9 µM; in assay [2], 600 nM; in assay [3], 2100 nM.

With `Cc1cc(Nc2cc(N3CCN(C)CC3)nc(Oc3ccccc3[N+](=O)[O-])n2)n[nH]1`, the IC50 is over 10 µM in assay [1], 1900 nM in assay [2] and 1600 nM in assay [3].
